Assays:
[1] = biological target: T1, β2c subunit of isolated human 20S proteasome (Homo sapiens, UniProt Q99436); experiment: Proteasome inhibition assay (20 S Proteasome Assay Kit, Bz‐VGR‐AMC); assay type: biochemical; details: c = 1 µM, n=1; read-out: Inhibition cCP β2
T1 construct: purchased Enzo Life Sciences
In short: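 Isolated 20S proteasome (200 ng/well) was preincubated 30 min with inhibitor, then Bz-VGR-AMC (100 μM final) was added for 60 min and fluorescence read. Single-point residual activity was taken at 100 nM or 1 μM; IC50 was fitted from duplicates, mean of three independent experiments.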

[2] = biological target: T2, β1c subunit of isolated human 20S proteasome (Homo sapiens, UniProt P28072); experiment: Proteasome inhibition assay (20 S Proteasome Assay Kit, Z‐LLE‐AMC); assay type: biochemical; details: c = 1 µM, n=1; read-out: Inhibition cCP β1
T2 construct: purchased Enzo Life Sciences
In short: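 Isolated human 20S proteasome (200 ng/well) preincubated 30 min with inhibitor, then 100 μM final Suc-LLVY-AMC (β5c, β5i) or Z-LLE-AMC (β1c) added for 60 min; fluorescence read. Residual activity at 100 nM final (n=3; β5c, β5i) or 1 μM (n=1, incl. β1c). IC50s: technical duplicates, mean of three experiments.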

in vitro = assay type: cell-based; details: human
Experimental: Remarkably, in THP‐1 cells the initial cytotoxicity is increasing for 3 compared to 27 until 14 h treatment (9‐fold) but is approaching to the end of the assay.
Time‐dependent determination of cell viability. For the determination of time‐dependent cytotoxic activity 5.000 cells per well were plated in a white 384 well‐plate in RPMI‐1640 medium supplemented with 0.1 % FBS. Real‐Time Glo MT cell viability assay (Promega) and inhibitor were added to the final concentration and luminescence was determined using a Tecan M1000 microplate reader at the time points indicated (SI chapter 2b, Figure S9–S17, Table S2).

With Cc1cc(C)c(Oc2ccccc2)cc1NC(=O)C(=O)[C@H](CC(C)C)NC(=O)[C@H](CC(C)C)NC(=O)[C@H](CC(C)C)NC(=O)c1cc(Cl)ccc1Cl [Compound 27, 2,5‐Dichloro‐N‐((S)‐1‐(((S)‐1‐(((S)‐1‐((2,4‐dimethyl‐5‐phenoxyphenyl)amino)‐5‐methyl‐1,2‐dioxo‐hexan‐3‐yl)amino)‐4‐methyl‐1‐oxopentan‐2‐yl)amino)‐4‐methyl‐1‐oxopentan‐2‐yl)benzamide] the inhibition at 1 µM [1] was 6%, the inhibition at 1 µM [2] was -48% and the IC50 at 13 h (in vitro) was 300 to 600 nM.

From article PMC6916368, “Cell‐Based Optimization of Covalent Reversible Ketoamide Inhibitors Bridging the Unprimed to the Primed Site of the Proteasome β5 Subunit” (Chemmedchem, 2019)
